Read-outs that look alike come from different tables or passages of the source. Values belong to the molecule of their own block, whether it stands above or below them.
What was measured:
VEGFR-2 = VEGFR-2 (Homo sapiens (Human), UniProt P35968); assay: In vitro kinase inhibition assay, VEGFR2 (KDR) Kinase Assay Kit; type: biochemical; conditions: for VEGFR-2 inhibitory effect, fold less than Sorafenib: vs Sorafenib
Description: (§1) RTK's play essential roles in regulation of cell proliferation, differentiation, survival and apoptosis. Aberrant expression of RTK results in cell growth dysfunction leading to tumor takeover, angiogenesis, and metastasis. They also produce their actions in a synergistic pattern in regulating tumor response to different anticancer RTK inhibitor drug therapies. […] The procedure of the used kits was done according to the manufacturer's instructions.

EGFR = EGFR (Homo sapiens (Human), UniProt P00533); assay: In vitro kinase inhibition assay, EGFR (Abcam Human In cell ELISA Kit); type: biochemical
Description: as §1

HER-2 = HER-2 (Homo sapiens (Human), UniProt P04626); assay: In vitro kinase inhibition assay, HER2 (ADP-Glo Kinase Assay); type: biochemical
Description: as §1

normal WI38 cells = assay: MTT assay against normal WI38 cells (safety profile); type: cell-based; conditions: for IC50 against WI38 cells, fold higher than IC50 against MCF-7 cancer cells: WI38 vs MCF-7; for IC50 against WI38 cells relative to IC50 of staurosporine: vs reference drug staurosporine
Protocol: (§2) For this purpose, cells suspended in the medium (2×10^4 cells/mL) were plated in 96-well culture plates and incubated at 37° C. in a 5% CO2 incubator. After 12 h, the test sample ([…]) was added to the cells (2×10^4) in 96-well plates and cultured at 37° C. for 3 days. The cultured cells were mixed with 20 μL (microlitre) of MTT solution and incubated for 4 h at 37° C. The supernatant was carefully removed from each well and […] of DMSO were added to each well to dissolve the formazan crystals which were formed by the cellular reduction of MTT. After mixing with a mechanical plate mixer, the absorbance of each well was measured by a microplate reader using a test wavelength of 570 nm (nanometers). […] Each experiment was performed at least 3 times.
One of the features that differentiates various antiproliferative therapeutic agents from each other is the recurrence and severity of their side effects to the normal cells at their therapeutic doses. Accordingly, the safety profile of the most promising candidates (4b, 4j, 4k, and 4e) was evaluated against the normal WI38 cells derived from lung tissues using MTT assay.

PDGFR-β = PDGFR-β (Homo sapiens (Human), UniProt P09619); assay: In vitro kinase inhibition assay, PDGFR-β; type: biochemical
Description: as §1

[1] = tested on: human breast cancer MCF-7 cell line; assay: MTT cell viability assay against MCF-7 cells; type: cell-based; conditions: vs standard drug staurosporine
Protocol: as §2

MCF-7 cancer cells = assay: Annexin-V/PI apoptosis assay, flow cytometry; type: cell-based, human; conditions: MCF-7, compound at IC50 concentration, 24 h; control 0.66%
Description: Flow cytometry method has been used to detect the corresponding red (PI) and green (FITC) fluorescence.
The induction of apoptosis is one of the most crucial tools that confirm the effectiveness of cancer therapy. Cell cycle checkpoints are G1 (restriction or start), S ([…]), and G2/M. One of the main functions of the anticancer therapeutics is stoppage of the cell division at these checkpoints. […] The cells were stained with Annexin V/PI and examined using flow cytometry procedure. For cell cycle analysis, cell pellets were fixed with 70% ethanol on ice for 15 min. and collected again. The collected pellets were incubated with propidium iodide (PI) staining solution ([…] PI, 0.1 mg/mL RNaseA, 0.05% Triton X-100) at room temperature for 1 hand analyzed by Gallios flow cytometer (Beckman Coulter, Brea, CA, USA). Apoptosis detection was performed by FITC Annexin V/PI commercial kit (Becton Dickenson, Franklin Lakes, N.J., USA) following the manufacture protocol. The samples were analyzed by fluorescence-activated cell sorting (FACS) with a Gallios flow cytometer (Beckman Coulter, Brea, Calif., USA) within 1 h after staining Data were analyzed using Kaluzav 1.2 (Beckman Coulter).

[2] = unit mM, read-out: EGFR IC50 (converted)

Chain of PDGFR-β (P09619 33-1106, species assumed): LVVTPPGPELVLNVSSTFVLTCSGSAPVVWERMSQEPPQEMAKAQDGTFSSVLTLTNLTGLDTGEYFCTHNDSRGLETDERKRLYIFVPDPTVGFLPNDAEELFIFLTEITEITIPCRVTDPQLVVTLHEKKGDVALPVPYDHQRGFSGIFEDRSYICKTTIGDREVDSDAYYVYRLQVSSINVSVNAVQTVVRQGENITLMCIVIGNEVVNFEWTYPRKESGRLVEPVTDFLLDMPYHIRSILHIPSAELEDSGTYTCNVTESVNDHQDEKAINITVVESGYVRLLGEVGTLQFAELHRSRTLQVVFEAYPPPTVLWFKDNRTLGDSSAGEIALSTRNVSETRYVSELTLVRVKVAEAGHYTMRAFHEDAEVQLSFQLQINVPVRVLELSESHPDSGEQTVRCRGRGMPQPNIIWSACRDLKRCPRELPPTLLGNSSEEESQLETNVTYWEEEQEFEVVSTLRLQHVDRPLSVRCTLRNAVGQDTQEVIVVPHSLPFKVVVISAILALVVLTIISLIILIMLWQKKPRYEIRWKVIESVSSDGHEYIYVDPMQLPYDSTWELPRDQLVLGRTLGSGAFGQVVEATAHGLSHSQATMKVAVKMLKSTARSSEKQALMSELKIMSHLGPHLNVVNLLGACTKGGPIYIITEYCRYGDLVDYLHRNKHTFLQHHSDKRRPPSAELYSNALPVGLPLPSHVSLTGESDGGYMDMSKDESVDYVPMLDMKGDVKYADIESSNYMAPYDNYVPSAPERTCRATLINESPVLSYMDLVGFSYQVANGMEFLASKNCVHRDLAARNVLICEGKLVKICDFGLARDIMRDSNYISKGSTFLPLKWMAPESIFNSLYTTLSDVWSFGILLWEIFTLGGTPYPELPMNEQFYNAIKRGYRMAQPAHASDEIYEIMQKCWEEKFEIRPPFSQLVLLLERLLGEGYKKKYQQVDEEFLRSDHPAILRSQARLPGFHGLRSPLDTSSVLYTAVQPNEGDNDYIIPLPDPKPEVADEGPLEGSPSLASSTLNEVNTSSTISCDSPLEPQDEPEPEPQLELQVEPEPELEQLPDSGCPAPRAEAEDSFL
Chain of VEGFR-2 (P35968 20-1356): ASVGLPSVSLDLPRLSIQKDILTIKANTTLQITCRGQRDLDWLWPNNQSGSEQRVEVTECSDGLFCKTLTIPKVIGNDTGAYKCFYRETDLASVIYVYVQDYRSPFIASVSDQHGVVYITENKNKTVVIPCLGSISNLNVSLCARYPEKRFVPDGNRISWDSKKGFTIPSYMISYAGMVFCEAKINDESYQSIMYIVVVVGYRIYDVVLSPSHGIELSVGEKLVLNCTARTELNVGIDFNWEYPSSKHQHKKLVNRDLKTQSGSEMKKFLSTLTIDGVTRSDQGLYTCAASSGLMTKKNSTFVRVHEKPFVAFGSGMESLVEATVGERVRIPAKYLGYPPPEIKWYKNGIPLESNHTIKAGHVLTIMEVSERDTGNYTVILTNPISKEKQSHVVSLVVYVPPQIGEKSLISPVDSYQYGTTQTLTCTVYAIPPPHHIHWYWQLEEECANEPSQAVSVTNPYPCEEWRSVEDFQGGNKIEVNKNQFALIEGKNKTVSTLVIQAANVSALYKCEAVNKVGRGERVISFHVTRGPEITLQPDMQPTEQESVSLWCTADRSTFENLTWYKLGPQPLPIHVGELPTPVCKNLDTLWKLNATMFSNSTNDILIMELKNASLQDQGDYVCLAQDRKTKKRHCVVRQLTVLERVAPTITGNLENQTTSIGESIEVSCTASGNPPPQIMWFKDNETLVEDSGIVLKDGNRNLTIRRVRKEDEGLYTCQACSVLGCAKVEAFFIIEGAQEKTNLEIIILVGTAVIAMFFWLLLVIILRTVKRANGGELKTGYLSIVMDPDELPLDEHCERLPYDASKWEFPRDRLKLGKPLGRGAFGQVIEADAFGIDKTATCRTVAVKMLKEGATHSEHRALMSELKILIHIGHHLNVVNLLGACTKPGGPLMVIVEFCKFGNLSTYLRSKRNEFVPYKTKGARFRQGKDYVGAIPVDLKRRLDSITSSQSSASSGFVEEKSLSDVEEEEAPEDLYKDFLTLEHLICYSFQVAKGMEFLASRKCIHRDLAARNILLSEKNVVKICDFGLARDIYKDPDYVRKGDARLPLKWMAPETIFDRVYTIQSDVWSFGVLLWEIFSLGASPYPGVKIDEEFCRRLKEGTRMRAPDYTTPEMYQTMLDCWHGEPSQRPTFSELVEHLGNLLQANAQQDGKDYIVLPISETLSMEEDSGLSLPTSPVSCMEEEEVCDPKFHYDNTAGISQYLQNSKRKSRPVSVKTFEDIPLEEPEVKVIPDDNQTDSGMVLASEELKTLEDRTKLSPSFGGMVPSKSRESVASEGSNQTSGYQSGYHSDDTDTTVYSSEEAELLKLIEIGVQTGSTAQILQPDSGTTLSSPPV
Chain of HER-2 (P04626 23-1255): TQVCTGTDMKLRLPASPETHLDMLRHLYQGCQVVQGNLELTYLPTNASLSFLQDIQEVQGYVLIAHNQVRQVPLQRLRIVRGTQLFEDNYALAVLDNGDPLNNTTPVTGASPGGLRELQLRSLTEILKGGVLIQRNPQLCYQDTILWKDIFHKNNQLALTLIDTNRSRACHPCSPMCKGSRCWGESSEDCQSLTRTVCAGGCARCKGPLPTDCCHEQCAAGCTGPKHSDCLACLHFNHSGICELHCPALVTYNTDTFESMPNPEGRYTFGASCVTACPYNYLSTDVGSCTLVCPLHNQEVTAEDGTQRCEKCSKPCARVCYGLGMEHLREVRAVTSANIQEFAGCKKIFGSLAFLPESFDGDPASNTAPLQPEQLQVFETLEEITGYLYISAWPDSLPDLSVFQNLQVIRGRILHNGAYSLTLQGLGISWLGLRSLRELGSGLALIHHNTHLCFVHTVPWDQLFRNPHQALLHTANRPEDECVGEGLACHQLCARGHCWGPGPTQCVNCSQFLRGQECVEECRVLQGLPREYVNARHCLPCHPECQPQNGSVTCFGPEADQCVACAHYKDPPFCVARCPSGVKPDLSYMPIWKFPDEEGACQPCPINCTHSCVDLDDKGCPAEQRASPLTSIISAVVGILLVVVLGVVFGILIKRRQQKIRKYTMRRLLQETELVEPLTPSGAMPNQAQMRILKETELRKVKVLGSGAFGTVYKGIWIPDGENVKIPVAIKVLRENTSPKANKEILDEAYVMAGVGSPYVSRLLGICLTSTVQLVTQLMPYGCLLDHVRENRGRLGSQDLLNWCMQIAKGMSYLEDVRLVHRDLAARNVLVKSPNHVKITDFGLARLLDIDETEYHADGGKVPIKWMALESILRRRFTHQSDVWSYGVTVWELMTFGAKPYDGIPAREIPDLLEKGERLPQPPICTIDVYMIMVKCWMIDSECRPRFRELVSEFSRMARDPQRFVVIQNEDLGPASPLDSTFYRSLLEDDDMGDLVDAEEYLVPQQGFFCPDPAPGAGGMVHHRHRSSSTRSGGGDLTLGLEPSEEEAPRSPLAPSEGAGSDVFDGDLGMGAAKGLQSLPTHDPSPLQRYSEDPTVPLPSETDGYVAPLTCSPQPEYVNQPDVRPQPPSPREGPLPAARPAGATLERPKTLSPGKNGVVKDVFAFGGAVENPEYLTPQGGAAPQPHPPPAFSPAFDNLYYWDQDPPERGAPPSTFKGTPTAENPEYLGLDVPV
Chain of EGFR (P00533 25-1210): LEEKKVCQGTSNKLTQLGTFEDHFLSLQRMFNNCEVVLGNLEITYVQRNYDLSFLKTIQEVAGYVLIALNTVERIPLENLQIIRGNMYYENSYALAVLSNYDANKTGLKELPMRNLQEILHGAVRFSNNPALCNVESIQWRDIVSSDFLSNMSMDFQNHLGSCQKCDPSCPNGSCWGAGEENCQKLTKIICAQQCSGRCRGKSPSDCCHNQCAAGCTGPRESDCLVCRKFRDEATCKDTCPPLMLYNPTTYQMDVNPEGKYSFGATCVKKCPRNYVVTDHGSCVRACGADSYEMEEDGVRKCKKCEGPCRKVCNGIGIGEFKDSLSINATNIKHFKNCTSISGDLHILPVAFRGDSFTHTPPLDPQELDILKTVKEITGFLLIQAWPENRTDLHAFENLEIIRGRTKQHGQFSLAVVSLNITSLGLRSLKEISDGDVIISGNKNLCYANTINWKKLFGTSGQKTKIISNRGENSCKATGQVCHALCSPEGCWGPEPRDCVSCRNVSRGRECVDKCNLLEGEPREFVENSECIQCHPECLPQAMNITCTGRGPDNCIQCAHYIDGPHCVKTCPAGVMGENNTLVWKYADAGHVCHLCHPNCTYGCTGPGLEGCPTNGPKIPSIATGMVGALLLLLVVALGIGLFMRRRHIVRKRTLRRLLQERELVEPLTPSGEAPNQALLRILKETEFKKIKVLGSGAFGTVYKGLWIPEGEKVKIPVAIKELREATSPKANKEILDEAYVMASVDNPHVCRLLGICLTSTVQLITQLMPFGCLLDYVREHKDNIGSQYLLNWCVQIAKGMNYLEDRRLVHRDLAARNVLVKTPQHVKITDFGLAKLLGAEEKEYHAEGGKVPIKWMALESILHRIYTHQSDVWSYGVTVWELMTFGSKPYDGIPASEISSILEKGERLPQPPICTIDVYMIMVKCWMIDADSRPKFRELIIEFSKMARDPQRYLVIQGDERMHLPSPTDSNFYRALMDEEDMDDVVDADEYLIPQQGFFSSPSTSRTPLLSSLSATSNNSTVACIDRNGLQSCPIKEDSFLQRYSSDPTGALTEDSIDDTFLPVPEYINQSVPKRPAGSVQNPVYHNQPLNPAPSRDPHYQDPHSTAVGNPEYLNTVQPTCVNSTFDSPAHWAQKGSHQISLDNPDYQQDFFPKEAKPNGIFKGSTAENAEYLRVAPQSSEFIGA

- IC50 (VEGFR-2; Table 4): 1.97 nM
- VEGFR-2 inhibitory effect, fold less than Sorafenib (VEGFR-2): about 6.2 fold
- IC50 (EGFR; [2]): 110 nM
- IC50 (HER-2; Table 4, read-out: HER-2 IC50 (converted)): 0.562 nM
- IC50 (PDGFR-β; Table 4): 0.394 nM
Compound: CCOC(=O)C1=C(C(F)(F)F)NC2=C(C(=O)CC(C)(C)C2)C1c1ccc(S(=O)(=O)c2ccccc2)cc1 (stereo not shown) [Compound 4b, ethyl 7,7-dimethyl-5-oxo-4-(4-(phenylsulfonyl)phenyl)-2-(trifluoromethyl)-1,4,5,6,7,8-hexahydroquinoline-3-carboxylate]
- IC50 against WI38 cells, fold higher than IC50 against MCF-7 cancer cells (normal WI38 cells): 24 fold
- IC50 against WI38 cells relative to IC50 of staurosporine (normal WI38 cells): about 3 fold
- fold more potent activity than staurosporine (MCF-7) [1]: about 2.5 fold

Compound: CC1(C)CC(=O)C2=C(C1)NC(N)=C(C(=O)c1ccccc1)C2c1ccc(S(=O)(=O)c2ccccc2)cc1 (stereo not shown) [Compound 4d, 2-amino-3-benzoyl-7,7-dimethyl-4-(4-(phenylsulfonyl)phenyl)-4,6,7,8-tetrahydroquinolin-5(1H)-one]
- fold less potent than the standard drug staurosporine (MCF-7) [1]: 1.4 fold

Compound: Cc1ccc(S(=O)(=O)c2ccc(C3C(C(=O)c4ccc(Br)cc4)=C(N)NC4=C3C(=O)CC(C)(C)C4)cc2)cc1 (stereo not shown) [Compound 4l, 2-amino-3-(4-bromobenzoyl)-7,7-dimethyl-4-(4-tosylphenyl)-4,6,7,8-tetrahydroquinolin-5(1H)-one]
- fold less potent than the standard drug staurosporine (MCF-7) [1]: 1.4 fold

Compound: CN[C@@H]1C[C@H]2O[C@@](C)([C@@H]1OC)n1c3ccccc3c3c4c(c5c6ccccc6n2c5c31)C(=O)NC4 [Staurosporine, reference compound]
- IC50 (normal WI38 cells; MTT, normal lung-derived cells): 13 ± 2 nM

- IC50 (VEGFR-2; Table 4): 0.57 nM
- IC50 (VEGFR-2; differs from Table 4): 304 nM
- VEGFR-2 inhibitory effect, fold less than Sorafenib (VEGFR-2): ~1.8 fold
- IC50 (EGFR; EGFR IC50, Table 4, heading: EGFR IC50): 70 ± 20 nM
- IC50 (EGFR; differs from Table 4, read-out: EGFR IC50 (converted)): 77.4 nM
- IC50 (EGFR; [2]): 70 nM
- IC50 (HER-2; Table 4, heading: HER-2 IC50, read-out: HER-2 IC50 (converted)): 170 ± 20 nM
- IC50 (HER-2; differs from Table 4, read-out: HER-2 IC50 (converted)): 171 nM
- IC50 (HER-2; unit mM, read-out: HER-2 IC50 as restated in text): 170 nM
- PDGFR-β inhibition, fold more than reference sorafenib (PDGFR-β): 0.7 fold
- IC50 (PDGFR-β; Table 4): 0.133 nM
- IC50 (PDGFR-β; differs from Table 4): 81.6 nM
- PDGFR-a inhibition, fold more than reference sorafenib (PDGFR-β; text b141 prints PDGFR-a): 1.9 fold
Compound: Cc1ccc(S(=O)(=O)c2ccc(C3C(C(=O)c4ccccc4)=C(N)NC4=C3C(=O)CC(C)(C)C4)cc2)cc1 (stereo not shown) [Compound 4j, 2-amino-3-benzoyl-7,7-dimethyl-4-(4-tosylphenyl)-4,6,7,8-tetrahydroquinolin-5(1H)-one]
- necrosis percent (MCF-7 cancer cells): 4.2%
- IC50 against WI38 cells, fold higher than IC50 against MCF-7 cancer cells (normal WI38 cells): 20 fold
- IC50 against WI38 cells relative to IC50 of staurosporine (normal WI38 cells): about 3 fold
- fold more potent activity than staurosporine (MCF-7) [1]: 1-1.6 fold

Compound: Cc1ccc(C(=O)C2=C(N)NC3=C(C(=O)CC(C)(C)C3)C2c2ccc(S(=O)(=O)c3ccc(C)cc3)cc2)cc1 (stereo not shown) [Compound 4k, 2-amino-7,7-dimethyl-3-(4-methylbenzoyl)-4-(4-tosylphenyl)-4,6,7,8-tetrahydroquinolin-5(1H)-one]
- IC50 against WI38 cells, fold higher than IC50 against MCF-7 cancer cells (normal WI38 cells): 4 fold
- IC50 against WI38 cells relative to IC50 of staurosporine (normal WI38 cells): approximately equal
- fold more potent activity than staurosporine (MCF-7) [1]: 1-1.6 fold

Compound: Cc1ccc(C(=O)C2=C(N)NC3=C(C(=O)CC(C)(C)C3)C2c2ccc(S(=O)(=O)c3ccccc3)cc2)cc1 (stereo not shown) [Compound 4e, 2-amino-7,7-dimethyl-3-(4-methylbenzoyl)-4-(4-(phenylsulfonyl)phenyl)-4,6,7,8-tetrahydroquinolin-5(1H)-one]
- IC50 against WI38 cells, fold higher than IC50 against MCF-7 cancer cells (normal WI38 cells): 4 fold
- IC50 against WI38 cells relative to IC50 of staurosporine (normal WI38 cells): approximately equal
- fold more potent activity than staurosporine (MCF-7) [1]: 1-1.6 fold

Reference: patent publication US11505527B1, “Tetrahydroquinoline derivatives and a process of preparation thereof” (King Abdulaziz University, priority 2022, dated 2022)
